Source: patent US20240424147A1, “PHTHALOCYANINE-LOADED MICELLES FOR THE DIRECT VISUALIZATION OF TUMORS” (THE TRUSTEES OF THE UNIVERSITY OF PENNSYLVANIA, priority 2022, published 2024)

Tests used:
[1] = Photothermal heating of micelles in water under 808 nm laser; format: physicochemical; settings: 808 nm laser 0.75 W/cm2, 10 min
Description: FIGS. 1A-1H show the preparation, characterization and uses of the PC dye micelles according to the invention. […] Infrared thermal images of water and NiPC micelle solution under laser irradiation.
(§1) A total of twenty-eight phthalocyanine and nine naphthalocyanine dyes were loaded into polymeric micelles, composed of the amphiphilic diblock copolymer PEGPCL, via oil-in-water emulsions (FIGS. 16A, 16B, 16C). The nanoparticles were characterized by UV-absorption spectroscopy and dynamic light scattering. The photothermal heating potential and photothermal stability of nanoparticles were assessed by irradiating samples using an 808 nm laser for 10 minutes at 0.75 W. Photoacoustic imaging signal was assessed by loading micelles into a phantom submerged in water. The top 5 naphthalocyanines and top 4 phthalocyanines, based on PA and heating properties, were used for in vitro and in vivo studies. The cytotoxicity and photocytotoxicity of the various micelles were assessed with ovarian cancer ID8-luciferase cells and breast cancer 4T1 cells using an MTS cell proliferation assay.
Pc and Nc-loaded micelles (9.4 uM dye concentration) and controls (empty micelles and water) were prepared and then irradiated at 808 nm (0.75 W/cm2) continuously for 10 min; heating of each sample was measured as a function of time. (FIG. 21)

[2] = free dye; cited from earlier work
[3] = Photothermal stability, repeated heating and cooling cycles; format: physicochemical; settings: three 10-min heating/cooling cycles, 808 nm, 9.4 uM
Description: as §1
Various Pc and Nc-loaded micelles (9.4 uM) were heated multiple times, using a laser (0.75 W/cm2), in 10-min increments. (FIG. 22) The samples were allowed to cool to room temperature between successive rounds.

[4] = PCs nanoparticles retention study: dialysis against 20 mM sodium cholate; format: physicochemical; settings: 24 h, in words
Description: 100 μL of PCs nanoparticles was diluted in 3 mL of 20 mM sodium cholate solution. Dialysis was performed with dialysis tubing (12,000-14,000 MWCO, Fisher) into 500 mL of 20 mM sodium cholate buffer at room temperature. The buffer was changed after 4 hours. The absorbance of the solutions was recorded before and after (24 hours) dialysis to determine dye retention percentage. […] Methylene blue (MB) is the only water-soluble blue dye that is used in this study.
PCs nanoparticles were synthesized using amphiphilic diblock copolymer (PEG-PCL) (FIG. 1A, phthalocyanine dyes used in this study are shown in FIGS. 4A-4F, see methods in Example 1). Due to the hydrophobic nature of PCs, they tend to aggregate in the aqueous medium (intermolecular interaction (π-π stacking)). […] The size of nanoparticles was determined with dynamic light scattering (DLS). […] The release of the PCs from PCs loaded micelles was assessed in sodium cholate buffer by monitoring leakage of PCs dyes as a function of time. […]
100 μL of PCs nanoparticles was diluted in 3 mL of 20 mM sodium cholate solution. […] The absorbance of the solutions was recorded before and after (24 hours) dialysis to determine dye retention percentage.

[5] = system: 4T1 triple-negative breast flank tumors; experiment: Direct visualization of 4T1 flank tumors after injection of micelles (SBR by ImageJ); format: in vivo, BALB/c mice; settings: 10 mg/kg intravenous (retro-orbital), 24 h where stated
Description: Photographs were quantified using ImageJ. Normalized signal-to-background (SBR) measurements were made using the tumor (i.e., the intensity of the blue color) and its surrounding tissue as background after 24 h of PCs loaded micelles (10 mg/kg) and MB (10 mg/kg) intravenous (retro-orbital) injection (n=3).
To identify the PC-loaded micelle formulation that is best able to differentiate tumors from surrounding healthy tissues via direct visualization, BALB/c mice bearing syngeneic 4T1 triple-negative breast flank tumors were injected intravenously with the various micelle formulations (10 mg/kg based on the dye concentration, 24 h before evaluation). […] Normalized signal-to-background (SBR) measurements were calculated in ImageJ using the intensity of the blue color within the tumor and its surrounding tissue, respectively.
4T1 tumor cells (2×10^6 cells in 100 ul) were implanted in the right flank of BALB/c mice (aged 6 weeks). […]
To assess blue nanoparticle accumulation in the breast and spontaneous colorectal mice model, tumors were evaluated visually, and normalized signal-to-background (SBR) was quantitated for each tumor relative to the surrounding tissue by measuring the intensity of blue-green colors via ImageJ. […] Tissues were placed in microscope glass slides, imaged fluorescence in the Cy5 filter (excitation 628-40 nm, emission 692-40 nm), and analyzed via ImageJ. […]

| heating ability after repeated irradiation [3] | release from the dialysis tubing [4] | SMILES | PTT performance compared with other dyes [1] | clearance upon injection [2] | tumor contrast / dye accumulation by direct visualization [5] |
| --- | --- | --- | --- | --- | --- |
| – | – | CCCCOc1c2c(c(OCCCC)c3ccccc13)-c1nc-2nc2[n-]c(nc3nc(nc4[n-]c(n1)c1c(OCCCC)c5ccccc5c(OCCCC)c41)-c1c-3c(OCCCC)c3ccccc3c1OCCCC)c1c(OCCCC)c3ccccc3c(OCCCC)c21.[Cu+2] [CuNc Octa, Copper(II) 5,9,14,18,23,27,32,36-octabutoxy-2,3-naphthalocyanine] | outperforms all previously tested Pc/Nc dyes for PTT | – | – |
| lost its ability to heat | – | CC1(C)C(/C=C/C=C/C=C/C=C2\N(CCCCS(=O)(=O)O)c3ccc4ccccc4c3C2(C)C)=[N+](CCCCS(=O)(=O)[O-])c2ccc3ccccc3c21 [ICG, indocyanine green] | – | cleared within minutes upon injection | – |
| – | released entirely | CN(C)c1ccc2nc3ccc(=[N+](C)C)cc-3sc2c1 [MB, Methylene blue] | – | cleared within minutes upon injection | no accumulation was observed |
